One block for each molecule: values may come before it. Non-standard residues stand in square brackets, D forms with d. Residues, ends and D or L forms follow the SMILES beside them. Arg(Me) = CNC(=N)NCCC[C@H](N)C(=O)O; d3Pal = N[C@H](Cc1cccnc1)C(=O)O; azaGly = NNC(=O)O
Key:
[1] = molecular target: Serine/threonine-protein kinase PAK 3 (Homo sapiens) (UniProt O75914); test: Selectivity interaction (33PanQinase Assay (Reaction Biology)) EUB0001107a PAK3
[2] = molecular target: Mitogen-activated protein kinase kinase kinase kinase 5 (Homo sapiens) (UniProt Q9Y4K4); test: Selectivity interaction (33PanQinase Assay (Reaction Biology)) EUB0001107a MAP4K5
[3] = molecular target: Serine/threonine-protein kinase PAK 2 (Homo sapiens) (UniProt Q13177); test: Selectivity interaction (33PanQinase Assay (Reaction Biology)) EUB0001107a PAK2
[4] = molecular target: T1, Cytoplasmic tyrosine-protein kinase BMX (Homo sapiens) (UniProt P51813); test: Selectivity interaction (KinomeScan (DiscoverX)) EUB0001068a BMX; settings: at 1 µM
T1 sequence (whole entry): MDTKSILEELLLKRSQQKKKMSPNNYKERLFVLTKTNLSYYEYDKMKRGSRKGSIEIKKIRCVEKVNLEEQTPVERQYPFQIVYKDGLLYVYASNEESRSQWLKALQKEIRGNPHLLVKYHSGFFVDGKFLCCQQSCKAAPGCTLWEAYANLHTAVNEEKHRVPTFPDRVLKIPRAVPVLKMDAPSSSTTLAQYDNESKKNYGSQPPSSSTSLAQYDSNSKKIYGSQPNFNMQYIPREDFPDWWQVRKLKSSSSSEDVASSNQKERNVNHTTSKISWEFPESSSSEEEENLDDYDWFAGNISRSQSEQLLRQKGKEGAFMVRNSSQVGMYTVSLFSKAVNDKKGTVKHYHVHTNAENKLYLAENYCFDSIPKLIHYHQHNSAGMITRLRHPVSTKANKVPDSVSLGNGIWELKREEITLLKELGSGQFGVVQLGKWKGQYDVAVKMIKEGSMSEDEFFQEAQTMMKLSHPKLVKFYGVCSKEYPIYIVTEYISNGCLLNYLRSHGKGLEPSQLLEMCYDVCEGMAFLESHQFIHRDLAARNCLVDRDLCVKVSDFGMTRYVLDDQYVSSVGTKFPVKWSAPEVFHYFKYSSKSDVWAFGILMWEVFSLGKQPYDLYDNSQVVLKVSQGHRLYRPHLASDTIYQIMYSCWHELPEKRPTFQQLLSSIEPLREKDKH

[5] = molecular target: T2, Serine/threonine-protein kinase Nek1 (Homo sapiens) (UniProt Q96PY6); test: Selectivity interaction (KinomeScan (DiscoverX)) EUB0001068a NEK1; settings: at 1 µM
T2 sequence (whole entry): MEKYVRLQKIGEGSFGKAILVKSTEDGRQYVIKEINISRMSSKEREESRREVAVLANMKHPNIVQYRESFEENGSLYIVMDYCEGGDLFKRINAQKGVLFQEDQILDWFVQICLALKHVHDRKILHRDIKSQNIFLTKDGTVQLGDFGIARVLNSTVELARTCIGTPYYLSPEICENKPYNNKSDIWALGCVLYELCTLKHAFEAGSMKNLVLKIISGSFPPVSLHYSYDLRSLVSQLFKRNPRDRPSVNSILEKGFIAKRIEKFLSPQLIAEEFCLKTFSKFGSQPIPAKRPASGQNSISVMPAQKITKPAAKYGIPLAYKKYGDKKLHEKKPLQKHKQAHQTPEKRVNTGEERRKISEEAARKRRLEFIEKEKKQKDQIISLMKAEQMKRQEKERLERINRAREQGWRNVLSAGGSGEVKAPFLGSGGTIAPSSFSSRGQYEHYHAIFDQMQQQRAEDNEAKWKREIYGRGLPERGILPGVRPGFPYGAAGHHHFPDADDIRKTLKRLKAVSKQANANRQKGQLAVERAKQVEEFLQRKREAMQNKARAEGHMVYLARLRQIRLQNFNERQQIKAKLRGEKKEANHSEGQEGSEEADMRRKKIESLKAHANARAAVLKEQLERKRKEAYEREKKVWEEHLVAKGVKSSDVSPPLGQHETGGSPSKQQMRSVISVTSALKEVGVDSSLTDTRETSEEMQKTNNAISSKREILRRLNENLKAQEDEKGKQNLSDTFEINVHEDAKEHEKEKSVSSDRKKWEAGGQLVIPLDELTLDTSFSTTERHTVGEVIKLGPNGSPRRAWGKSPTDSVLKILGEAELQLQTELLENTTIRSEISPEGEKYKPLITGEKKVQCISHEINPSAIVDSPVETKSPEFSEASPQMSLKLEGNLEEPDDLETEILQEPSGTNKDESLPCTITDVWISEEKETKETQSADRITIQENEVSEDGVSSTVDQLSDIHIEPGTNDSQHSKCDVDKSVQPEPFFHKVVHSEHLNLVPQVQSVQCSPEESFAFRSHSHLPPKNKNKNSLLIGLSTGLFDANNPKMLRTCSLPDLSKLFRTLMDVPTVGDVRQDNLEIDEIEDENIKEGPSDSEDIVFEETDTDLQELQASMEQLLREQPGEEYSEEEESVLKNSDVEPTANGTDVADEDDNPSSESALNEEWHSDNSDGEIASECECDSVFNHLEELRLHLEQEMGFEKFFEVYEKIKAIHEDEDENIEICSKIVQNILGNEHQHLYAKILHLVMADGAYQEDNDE

[6] = molecular target: Serine/threonine-protein kinase 38-like (Homo sapiens) (UniProt Q9Y2H1); test: Selectivity interaction (KinomeScan (DiscoverX)) EUB0001068a STK38L; settings: at 1 µM
[7] = molecular target: 5-hydroxytryptamine receptor 5A (Homo sapiens) (UniProt P47898); test: Selectivity interaction (GPCR panel (PDSP screen)) EUB0001072a HTR5A; settings: at 10 µM
[8] = molecular target: 5-hydroxytryptamine receptor 1B (Homo sapiens) (UniProt P28222); test: Selectivity interaction (GPCR panel (PDSP screen)) EUB0001072a HTR1B; settings: at 10 µM
[9] = molecular target: 4-aminobutyrate aminotransferase, mitochondrial (Homo sapiens, UniProt P80404); test: Selectivity interaction (GPCR panel (PDSP screen)) EUB0001072a ABAT; settings: at 10 µM
[10] = molecular target: 5-hydroxytryptamine receptor 2B (Homo sapiens, UniProt P41595); test: Selectivity interaction (GPCR panel (PDSP screen)) EUB0001072a HTR2B; settings: at 10 µM
[11] = molecular target: T3, 5-hydroxytryptamine receptor 1A (Homo sapiens) (UniProt P08908); test: Selectivity interaction (GPCR panel (PDSP screen)) EUB0001072a HTR1A; settings: at 10 µM
T3 sequence (whole entry): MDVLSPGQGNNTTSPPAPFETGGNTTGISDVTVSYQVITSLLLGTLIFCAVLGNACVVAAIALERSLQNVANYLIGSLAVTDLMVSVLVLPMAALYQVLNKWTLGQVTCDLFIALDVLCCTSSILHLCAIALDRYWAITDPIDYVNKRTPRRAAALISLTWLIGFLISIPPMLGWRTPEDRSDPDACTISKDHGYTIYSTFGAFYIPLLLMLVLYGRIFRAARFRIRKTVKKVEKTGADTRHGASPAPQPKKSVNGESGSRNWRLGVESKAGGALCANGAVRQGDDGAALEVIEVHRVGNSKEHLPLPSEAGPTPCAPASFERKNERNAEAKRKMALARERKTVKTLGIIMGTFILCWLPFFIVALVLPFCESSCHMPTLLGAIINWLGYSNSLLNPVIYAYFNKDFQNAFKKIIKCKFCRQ

[12] = molecular target: Muscarinic acetylcholine receptor M5 (Homo sapiens) (UniProt P08912); test: Selectivity interaction (GPCR panel (PDSP screen)) EUB0001072a CHRM5; settings: at 10 µM
Histamine H3 receptor = Histamine H3 receptor (Homo sapiens, UniProt Q9Y5N1); test: Selectivity interaction (GPCR panel (PDSP screen)) EUB0001072a HRH3; settings: at 10 µM
[13] = molecular target: Muscarinic acetylcholine receptor M3 (Homo sapiens, UniProt P20309); test: Selectivity interaction (GPCR panel (PDSP screen)) EUB0001072a CHRM3; settings: at 10 µM
[14] = molecular target: Sodium-dependent dopamine transporter (Homo sapiens, UniProt Q01959); test: Selectivity interaction (GPCR panel (PDSP screen)) EUB0001072a SLC6A3; settings: at 10 µM
[15] = molecular target: 5-hydroxytryptamine receptor 1D (Homo sapiens) (UniProt P28221); test: Selectivity interaction (GPCR panel (PDSP screen)) EUB0001072a HTR1D; settings: at 10 µM
[16] = molecular target: T4, Gamma-aminobutyric acid receptor subunit alpha-1 (Homo sapiens) (UniProt P14867); test: (§1) Selectivity interaction (GPCR panel (PDSP screen)) EUB0001072a GABRA1; settings: at 10 µM
T4 sequence (whole entry): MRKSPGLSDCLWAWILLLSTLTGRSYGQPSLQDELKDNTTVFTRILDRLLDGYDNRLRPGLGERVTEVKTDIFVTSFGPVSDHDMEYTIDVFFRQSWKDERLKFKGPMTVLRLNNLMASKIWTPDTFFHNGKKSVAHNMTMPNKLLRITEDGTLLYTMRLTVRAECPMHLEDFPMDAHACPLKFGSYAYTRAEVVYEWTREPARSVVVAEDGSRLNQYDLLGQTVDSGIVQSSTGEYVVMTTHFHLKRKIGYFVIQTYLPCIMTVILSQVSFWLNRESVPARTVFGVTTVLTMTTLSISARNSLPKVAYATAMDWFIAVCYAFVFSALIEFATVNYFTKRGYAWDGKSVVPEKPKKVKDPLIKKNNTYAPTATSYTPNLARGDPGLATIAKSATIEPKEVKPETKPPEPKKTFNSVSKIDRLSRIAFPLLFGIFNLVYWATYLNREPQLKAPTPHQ

[17] = molecular target: D(1B) dopamine receptor (Homo sapiens) (UniProt P21918); test: Selectivity interaction (GPCR panel (PDSP screen)) EUB0001072a DRD5; settings: at 10 µM
[18] = molecular target: Alpha-2B adrenergic receptor (Homo sapiens) (UniProt P18089); test: Selectivity interaction (GPCR panel (PDSP screen)) EUB0001072a ADRA2B; settings: at 10 µM
[19] = molecular target: 5-hydroxytryptamine receptor 1E (Homo sapiens) (UniProt P28566); test: Selectivity interaction (GPCR panel (PDSP screen)) EUB0001072a HTR1E; settings: at 10 µM
[20] = molecular target: T5, Muscarinic acetylcholine receptor M2 (Homo sapiens) (UniProt P08172); test: Selectivity interaction (GPCR panel (PDSP screen)) EUB0001072a CHRM2; settings: at 10 µM
T5 sequence (whole entry): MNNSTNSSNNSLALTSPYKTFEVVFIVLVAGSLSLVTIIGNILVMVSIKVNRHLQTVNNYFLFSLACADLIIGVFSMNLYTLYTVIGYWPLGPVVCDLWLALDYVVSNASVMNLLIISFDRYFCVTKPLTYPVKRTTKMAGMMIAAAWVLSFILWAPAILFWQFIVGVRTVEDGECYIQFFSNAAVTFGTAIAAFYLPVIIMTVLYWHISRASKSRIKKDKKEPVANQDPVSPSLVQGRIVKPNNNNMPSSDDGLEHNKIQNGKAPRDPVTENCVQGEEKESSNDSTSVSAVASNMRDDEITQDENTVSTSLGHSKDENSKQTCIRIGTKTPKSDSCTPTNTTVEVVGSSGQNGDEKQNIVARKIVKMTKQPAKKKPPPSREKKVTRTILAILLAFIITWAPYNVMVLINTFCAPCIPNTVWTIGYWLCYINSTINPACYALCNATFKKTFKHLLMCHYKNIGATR

[21] = molecular target: T4, Gamma-aminobutyric acid receptor subunit alpha-1 (Homo sapiens); test: as §1; settings: at 10 µM; remark: listed apart in the source
[22] = molecular target: Muscarinic acetylcholine receptor M4 (Homo sapiens) (UniProt P08173); test: Selectivity interaction (GPCR panel (PDSP screen)) EUB0001072a CHRM4; settings: at 10 µM
[23] = molecular target: T6, Muscarinic acetylcholine receptor M1 (Homo sapiens) (UniProt P11229); test: Selectivity interaction (GPCR panel (PDSP screen)) EUB0001072a CHRM1; settings: at 10 µM
T6 sequence (whole entry): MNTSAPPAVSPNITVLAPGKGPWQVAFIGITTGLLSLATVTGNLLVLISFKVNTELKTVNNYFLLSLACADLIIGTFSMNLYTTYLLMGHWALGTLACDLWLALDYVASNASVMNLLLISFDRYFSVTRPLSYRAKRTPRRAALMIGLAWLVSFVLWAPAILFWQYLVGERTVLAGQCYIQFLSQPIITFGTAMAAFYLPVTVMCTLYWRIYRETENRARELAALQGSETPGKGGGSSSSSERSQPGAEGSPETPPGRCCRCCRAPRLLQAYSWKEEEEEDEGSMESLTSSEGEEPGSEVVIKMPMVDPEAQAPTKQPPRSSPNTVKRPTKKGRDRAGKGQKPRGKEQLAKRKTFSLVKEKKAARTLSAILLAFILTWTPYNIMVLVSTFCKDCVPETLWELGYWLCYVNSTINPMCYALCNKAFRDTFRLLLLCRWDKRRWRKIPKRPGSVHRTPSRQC

[24] = molecular target: 5-hydroxytryptamine receptor 2A (Homo sapiens, UniProt P28223); test: Selectivity interaction (GPCR panel (PDSP screen)) EUB0001072a HTR2A; settings: at 10 µM

Sequence of Muscarinic acetylcholine receptor M5 (Homo sapiens) (P08912 whole entry): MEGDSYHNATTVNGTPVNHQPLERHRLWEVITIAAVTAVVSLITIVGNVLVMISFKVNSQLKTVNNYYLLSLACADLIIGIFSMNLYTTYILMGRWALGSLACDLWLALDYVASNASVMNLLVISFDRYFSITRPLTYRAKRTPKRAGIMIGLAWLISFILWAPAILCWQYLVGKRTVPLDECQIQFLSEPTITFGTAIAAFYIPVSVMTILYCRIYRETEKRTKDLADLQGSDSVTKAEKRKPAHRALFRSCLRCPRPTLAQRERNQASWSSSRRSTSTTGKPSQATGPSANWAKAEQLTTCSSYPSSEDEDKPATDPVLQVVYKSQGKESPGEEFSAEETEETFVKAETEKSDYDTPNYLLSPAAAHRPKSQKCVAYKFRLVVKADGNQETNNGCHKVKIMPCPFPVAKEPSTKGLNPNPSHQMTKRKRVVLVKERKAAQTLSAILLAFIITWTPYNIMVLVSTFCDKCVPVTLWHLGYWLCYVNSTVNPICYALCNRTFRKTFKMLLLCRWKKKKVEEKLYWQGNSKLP
Sequence of 5-hydroxytryptamine receptor 1B (Homo sapiens) (P28222 whole entry): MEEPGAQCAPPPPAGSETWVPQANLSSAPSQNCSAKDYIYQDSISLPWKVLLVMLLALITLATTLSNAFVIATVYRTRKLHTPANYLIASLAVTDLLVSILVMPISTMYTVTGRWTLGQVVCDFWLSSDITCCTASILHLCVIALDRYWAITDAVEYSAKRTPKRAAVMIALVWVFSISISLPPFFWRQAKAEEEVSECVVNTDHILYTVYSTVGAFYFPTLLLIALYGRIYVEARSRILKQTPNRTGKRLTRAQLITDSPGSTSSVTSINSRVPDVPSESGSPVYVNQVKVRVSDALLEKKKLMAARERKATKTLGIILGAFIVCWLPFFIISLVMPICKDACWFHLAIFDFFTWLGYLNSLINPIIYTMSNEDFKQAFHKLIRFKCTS
Sequence of Histamine H3 receptor (Q9Y5N1 whole entry): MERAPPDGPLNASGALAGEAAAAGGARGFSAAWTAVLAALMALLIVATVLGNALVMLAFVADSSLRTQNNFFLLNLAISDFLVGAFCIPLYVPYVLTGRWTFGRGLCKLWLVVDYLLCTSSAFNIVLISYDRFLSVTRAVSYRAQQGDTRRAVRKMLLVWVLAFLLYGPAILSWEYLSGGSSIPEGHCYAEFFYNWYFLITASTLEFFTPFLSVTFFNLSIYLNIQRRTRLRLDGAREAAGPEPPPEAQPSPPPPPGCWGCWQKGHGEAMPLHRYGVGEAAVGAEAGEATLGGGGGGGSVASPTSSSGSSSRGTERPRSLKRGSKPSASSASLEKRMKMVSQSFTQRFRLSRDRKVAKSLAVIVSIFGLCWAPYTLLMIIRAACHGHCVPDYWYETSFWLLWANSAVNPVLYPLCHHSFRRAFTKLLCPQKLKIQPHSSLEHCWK
Sequence of Serine/threonine-protein kinase PAK 3 (Homo sapiens) (O75914 whole entry, looked up): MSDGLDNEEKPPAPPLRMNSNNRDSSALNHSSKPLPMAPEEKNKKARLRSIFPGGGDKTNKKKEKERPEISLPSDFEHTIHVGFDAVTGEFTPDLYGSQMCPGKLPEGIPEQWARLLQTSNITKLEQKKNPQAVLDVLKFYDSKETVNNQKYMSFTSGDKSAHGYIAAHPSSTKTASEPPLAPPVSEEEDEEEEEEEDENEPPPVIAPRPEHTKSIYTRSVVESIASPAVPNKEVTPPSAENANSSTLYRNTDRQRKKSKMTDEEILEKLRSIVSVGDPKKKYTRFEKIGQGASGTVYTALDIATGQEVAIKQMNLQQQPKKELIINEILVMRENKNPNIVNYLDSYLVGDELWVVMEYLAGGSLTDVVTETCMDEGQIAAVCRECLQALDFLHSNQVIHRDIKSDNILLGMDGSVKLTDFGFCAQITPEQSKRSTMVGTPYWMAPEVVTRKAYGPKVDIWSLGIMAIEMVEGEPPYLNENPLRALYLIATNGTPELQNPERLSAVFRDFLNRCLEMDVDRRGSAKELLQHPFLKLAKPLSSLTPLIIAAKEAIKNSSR
Sequence of Muscarinic acetylcholine receptor M4 (Homo sapiens) (P08173 whole entry): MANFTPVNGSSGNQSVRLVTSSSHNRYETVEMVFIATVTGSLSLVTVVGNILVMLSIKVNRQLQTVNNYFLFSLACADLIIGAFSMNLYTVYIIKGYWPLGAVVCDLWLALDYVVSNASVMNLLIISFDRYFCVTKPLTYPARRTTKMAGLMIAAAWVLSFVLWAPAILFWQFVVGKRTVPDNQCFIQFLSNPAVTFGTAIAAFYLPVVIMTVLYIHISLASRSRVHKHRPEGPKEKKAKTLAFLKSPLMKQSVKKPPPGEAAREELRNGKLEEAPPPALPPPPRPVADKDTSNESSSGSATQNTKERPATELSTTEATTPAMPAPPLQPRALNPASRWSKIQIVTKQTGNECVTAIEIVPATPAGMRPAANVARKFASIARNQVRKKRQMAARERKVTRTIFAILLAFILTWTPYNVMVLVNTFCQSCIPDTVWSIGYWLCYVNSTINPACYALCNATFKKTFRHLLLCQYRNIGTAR
Sequence of Sodium-dependent dopamine transporter (Q01959 whole entry): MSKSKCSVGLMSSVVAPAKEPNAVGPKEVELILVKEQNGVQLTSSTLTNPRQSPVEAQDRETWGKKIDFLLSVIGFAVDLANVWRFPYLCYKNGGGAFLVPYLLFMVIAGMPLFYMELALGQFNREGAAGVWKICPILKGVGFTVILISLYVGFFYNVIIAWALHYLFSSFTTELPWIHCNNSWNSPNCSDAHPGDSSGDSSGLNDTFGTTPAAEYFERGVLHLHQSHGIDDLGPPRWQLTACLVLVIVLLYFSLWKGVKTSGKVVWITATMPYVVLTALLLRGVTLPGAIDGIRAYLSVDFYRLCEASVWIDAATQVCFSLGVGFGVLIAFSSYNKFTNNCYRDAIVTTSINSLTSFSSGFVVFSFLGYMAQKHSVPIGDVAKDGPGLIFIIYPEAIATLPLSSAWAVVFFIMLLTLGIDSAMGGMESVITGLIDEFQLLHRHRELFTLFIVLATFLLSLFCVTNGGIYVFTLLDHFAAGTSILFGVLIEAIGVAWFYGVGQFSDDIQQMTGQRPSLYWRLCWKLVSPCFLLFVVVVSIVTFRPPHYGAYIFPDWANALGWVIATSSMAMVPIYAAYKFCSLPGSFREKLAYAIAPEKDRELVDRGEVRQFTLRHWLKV
Sequence of Alpha-2B adrenergic receptor (Homo sapiens) (P18089 whole entry): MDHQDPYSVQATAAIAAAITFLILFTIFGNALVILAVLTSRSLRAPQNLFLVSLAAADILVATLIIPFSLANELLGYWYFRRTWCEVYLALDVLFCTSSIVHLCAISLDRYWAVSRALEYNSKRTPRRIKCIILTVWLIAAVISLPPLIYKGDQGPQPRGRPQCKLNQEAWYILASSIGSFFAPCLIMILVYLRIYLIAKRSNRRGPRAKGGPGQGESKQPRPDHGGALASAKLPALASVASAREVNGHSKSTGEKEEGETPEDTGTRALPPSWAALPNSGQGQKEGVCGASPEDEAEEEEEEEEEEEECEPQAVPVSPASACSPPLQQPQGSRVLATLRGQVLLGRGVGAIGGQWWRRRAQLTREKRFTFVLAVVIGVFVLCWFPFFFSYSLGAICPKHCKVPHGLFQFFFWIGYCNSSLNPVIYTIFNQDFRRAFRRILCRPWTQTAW
Sequence of Serine/threonine-protein kinase PAK 2 (Homo sapiens) (Q13177 whole entry): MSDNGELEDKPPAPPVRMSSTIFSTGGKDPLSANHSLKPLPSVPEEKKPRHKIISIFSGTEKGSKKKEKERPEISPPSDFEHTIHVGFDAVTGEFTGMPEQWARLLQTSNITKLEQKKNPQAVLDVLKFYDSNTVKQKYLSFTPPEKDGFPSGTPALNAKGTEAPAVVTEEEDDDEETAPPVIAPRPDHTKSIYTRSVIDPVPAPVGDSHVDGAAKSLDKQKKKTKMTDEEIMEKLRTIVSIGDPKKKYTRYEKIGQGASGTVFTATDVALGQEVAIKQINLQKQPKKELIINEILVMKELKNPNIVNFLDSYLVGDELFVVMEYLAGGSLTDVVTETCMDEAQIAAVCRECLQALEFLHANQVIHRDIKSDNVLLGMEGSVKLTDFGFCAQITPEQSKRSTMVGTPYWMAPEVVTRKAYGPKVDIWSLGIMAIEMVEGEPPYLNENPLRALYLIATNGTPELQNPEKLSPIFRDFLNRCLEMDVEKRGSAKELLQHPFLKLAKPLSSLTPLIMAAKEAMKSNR
Sequence of Muscarinic acetylcholine receptor M3 (P20309 whole entry, looked up): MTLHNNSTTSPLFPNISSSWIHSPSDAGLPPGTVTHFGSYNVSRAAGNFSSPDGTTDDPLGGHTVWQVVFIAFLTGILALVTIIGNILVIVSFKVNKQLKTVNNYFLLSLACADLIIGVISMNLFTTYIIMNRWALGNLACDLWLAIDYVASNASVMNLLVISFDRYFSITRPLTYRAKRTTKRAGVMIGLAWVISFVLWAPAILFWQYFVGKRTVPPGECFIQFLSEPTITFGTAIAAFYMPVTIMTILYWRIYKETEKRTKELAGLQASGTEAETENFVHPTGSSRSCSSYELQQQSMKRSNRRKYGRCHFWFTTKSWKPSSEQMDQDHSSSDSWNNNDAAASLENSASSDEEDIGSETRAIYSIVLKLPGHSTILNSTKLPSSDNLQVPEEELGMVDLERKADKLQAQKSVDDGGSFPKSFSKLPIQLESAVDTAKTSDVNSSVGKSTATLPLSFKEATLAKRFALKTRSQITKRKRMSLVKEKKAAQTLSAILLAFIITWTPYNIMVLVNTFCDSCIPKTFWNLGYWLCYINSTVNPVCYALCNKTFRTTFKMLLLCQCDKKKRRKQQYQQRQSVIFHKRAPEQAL
Sequence of 5-hydroxytryptamine receptor 1D (Homo sapiens) (P28221 whole entry): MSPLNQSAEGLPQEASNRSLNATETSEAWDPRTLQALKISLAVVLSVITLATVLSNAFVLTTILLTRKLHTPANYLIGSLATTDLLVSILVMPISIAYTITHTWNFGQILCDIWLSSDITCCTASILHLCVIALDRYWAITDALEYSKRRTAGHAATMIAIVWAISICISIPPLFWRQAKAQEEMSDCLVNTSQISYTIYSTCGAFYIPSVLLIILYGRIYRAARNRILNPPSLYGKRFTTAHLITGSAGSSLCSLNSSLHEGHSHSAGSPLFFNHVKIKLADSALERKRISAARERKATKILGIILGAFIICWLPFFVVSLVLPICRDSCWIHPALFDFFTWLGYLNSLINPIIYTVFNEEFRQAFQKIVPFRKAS

% of residual activity [1]: 9%
% of residual activity [2]: 8%
% of residual activity [3]: 10%
SMILES: CNc1ncc2cc(-c3ccc(-c4ncccc4F)cc3Cl)c(=O)n(C[C@H]3OC[C@H](N)CO3)c2n1

% of control [4]: 50%
% of control [5]: 45%
% of control [6]: 47%
SMILES: CN(C(=O)c1ccccc1)c1cc(N(C)c2ccc3c(c2)CCc2ccc(C(=O)NCCN4CCOCC4)cc2C3=O)ccc1F

SMILES: CNC(=N)NCCC[C@H](NC(=O)[C@H](CC(C)C)NC(=O)NNC(=O)[C@H](Cc1ccccc1)NC(=O)[C@H](CO)NC(=O)[C@H](CC(N)=O)NC(=O)[C@@H](Cc1cccnc1)NC(=O)[C@H](N)Cc1ccc(O)cc1)C(=O)NCC(N)=O (H-[dY][d3Pal]NSF[azaGly]L[Arg(Me)]G-NH2)
% of inhibition [7]: 16.3%
% of inhibition [8]: 31%
% of inhibition [9]: 15.6%
% of inhibition [10]: 11.3%
% of inhibition [11]: 30.9%
% of inhibition [12]: 12.3%
% of inhibition (Histamine H3 receptor): 12.5%
% of inhibition [13]: 24.7%
% of inhibition [14]: 10.4%
% of inhibition [15]: 12.4%
% of inhibition [16]: 15.5%
% of inhibition [17]: 29.2%
% of inhibition [18]: 14.5%
% of inhibition [19]: 27.9%
% of inhibition [20]: 40.7%
% of inhibition [21]: 12.3%
% of inhibition [22]: 18.5%
% of inhibition [23]: 15.1%
% of inhibition [24]: 16.9%

From ChEMBL document CHEMBL5465560, “Selectivity Literature for EUbOPEN Chemogenomic Library” (2024)
